From patent US7589123B2, “Chemical compounds” (Phytopharm PLC, priority 2006, dated 2009)

Legend:
[1] = system: IL-1α-induced PGE2 release; test: IL-1α-induced PGE2 release in human diploid lung fibroblasts (WI-38) (Assay 5); format: cell-based; conditions: WI-38 cells, IL-1α 1 nM, overnight
Procedure, shortened: (§1)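 Cell viability was read by Alamar Blue fluorescence (530/590 nm) after 4 h at 37 °C, following an overnight 37 °C incubation of human lung fibroblasts with 1 nM IL-1α and compound (3 or 30 μM) in 10% FBS MEM, pH 7.3. Supernatant PGE2 was measured by radioimmunoassay to derive percent inhibition.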

WI-38 cells = test: Viability of WI-38 cells, Alamar Blue (Assay 5); format: cell-based, human
Procedure, shortened: as §1

[2] = system: 5-HT-induced contractions in guinea pig ileum; test: Inhibition of 5-HT-induced contractions in guinea pig ileum (Assay 3); conditions: 5-HT 2.6 μM
Procedure, shortened: (§2)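 Ileal strips from male Duncan Hartley guinea pigs were held at 1 g tension in 32° C oxygenated Krebs (pH 7.4) with isotonic transducers. After control contractions to 5-HT (2.6 μM) or histamine (1.7 μM), compound at 3 and 30 μM was added, its own effect noted, and agonist re-applied.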

TRPV1 receptor [3] = molecular target: T1, TRPV1 receptor (Rattus norvegicus, UniProt O35433); test: TRPV1 receptor modulation in the rat vas deferens, EFS-induced contraction (Assay 1); conditions: electrical field stimulation
T1 sequence (O35433 whole entry): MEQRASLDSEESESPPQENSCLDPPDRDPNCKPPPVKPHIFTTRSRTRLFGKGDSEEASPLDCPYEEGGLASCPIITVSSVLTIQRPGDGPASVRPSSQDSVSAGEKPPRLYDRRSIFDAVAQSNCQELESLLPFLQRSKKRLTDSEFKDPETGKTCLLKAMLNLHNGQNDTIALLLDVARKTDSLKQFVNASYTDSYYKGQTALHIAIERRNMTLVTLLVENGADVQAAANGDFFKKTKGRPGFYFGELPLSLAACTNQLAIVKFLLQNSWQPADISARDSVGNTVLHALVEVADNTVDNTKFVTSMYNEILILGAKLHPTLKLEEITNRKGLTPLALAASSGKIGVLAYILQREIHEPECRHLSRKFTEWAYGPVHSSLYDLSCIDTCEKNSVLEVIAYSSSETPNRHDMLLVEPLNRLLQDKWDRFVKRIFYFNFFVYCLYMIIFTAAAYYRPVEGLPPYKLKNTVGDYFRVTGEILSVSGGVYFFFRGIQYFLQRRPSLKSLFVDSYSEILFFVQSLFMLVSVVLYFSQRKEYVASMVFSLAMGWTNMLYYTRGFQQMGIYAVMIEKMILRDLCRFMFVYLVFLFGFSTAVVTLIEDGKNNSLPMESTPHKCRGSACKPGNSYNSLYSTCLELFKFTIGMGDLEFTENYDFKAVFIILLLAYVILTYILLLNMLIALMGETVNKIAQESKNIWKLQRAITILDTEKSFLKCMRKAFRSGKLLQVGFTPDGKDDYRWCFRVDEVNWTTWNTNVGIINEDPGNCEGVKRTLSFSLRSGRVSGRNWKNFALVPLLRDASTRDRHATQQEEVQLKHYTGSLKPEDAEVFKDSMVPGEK
Method: Wistar derived male rats (275±25 g) were suppressed by CO2 overexposure. The vas deferens was removed, placed in Krebs solution, pH 7.4 (composition in g/l: NaCl 6.89, KCl 0.35, CaCl2 0.277, KH2PO4 0.163, MgSO4.7H2O 0.296, NaHCO3 2.1 glucose 1.8) and excess fat and connective tissue removed. The portion of the vas deferens closest to the prostate was cut in half and each half was placed under 1 g tension in a 10 ml bath containing Krebs solution at 32° C. The tissue was contracted by electrical field stimulation (EFS; 60% of maximum stimulation, 0.015 Hz, 0.5 ms in duration) and contractile responses were measured.

TRPV1 receptor [4] = molecular target: T1, TRPV1 receptor; test: TRPV1 modulation in DRG neurones: CGRP release in absence and presence of capsaicin (Assay 2); format: cell-based; design: The culture used for this experiment contained sensory neurones, Schwann cells and fibroblasts; endogenous in cells; host or cells: primary rat DRG sensory neurone culture (with Schwann cells and fibroblasts); conditions: for Effect of test compounds on capsaicin (1 μM)-induced CGRP release (%): −ve: inhibition, +ve: potentiation of capsaicin response; for CGRP release (% of capsaicin (1 μM) response): rat DRG sensory neurones, 20 min
guinea pig ileum = test: Effect of test compound alone on guinea pig ileum contraction (Assay 3)
Method: Duncan Hartley derived male guinea pigs (325±25 g) were suppressed by CO2 overexposure, the abdominal cavity was exposed and ileal segments were removed. Small strips of ileum were suspended in organ baths containing Krebs solution (composition in g/l: NaCl 6.89, KCl 0.35, CaCl2 0.277, KH2PO4 0.163, MgSO4.7H2O 0.296, NaHCO3 2.1 glucose 1.8). The solution was kept at 32° C. and gassed with O2 (95%)-CO2 (5%) to maintain pH at 7.4. Mechanical activity was recorded by means of isotonic transducers. A resting tension of 1 g was applied to muscle strips before being equilibrated for 1 h, prior to test compound addition. Each preparation was washed twice at 15 min intervals during the equilibration.
Histamine (1.7 μM; approximately EC60-70) or 5-hydroxytryptamine (5-HT, 2.6 μM; approximately EC60-70) was applied for 5 min and the amplitude of the contraction recorded. The histamine or 5-HT was then washed out until the ileal tissue returned to baseline. Five min after returning to baseline test compound (3 and 30 μM) was applied and the amplitude of the contraction (if any) was recorded. In the continuous presence of test compound, histamine or 5-HT was re-applied and the inhibition of the response was recorded.

5-lipoxygenase = molecular target: T2, 5-lipoxygenase (Homo sapiens, UniProt P09917); test: 5-lipoxygenase activity (LTB4) in human peripheral blood mononuclear leukocytes (Assay 6); format: cell-based; conditions: human PBMLs, A23187 30 μM
T2 construct: endogenous in cells; host or cells: human peripheral blood mononuclear leukocytes (PBMLs)
T2 sequence (P09917 1-674): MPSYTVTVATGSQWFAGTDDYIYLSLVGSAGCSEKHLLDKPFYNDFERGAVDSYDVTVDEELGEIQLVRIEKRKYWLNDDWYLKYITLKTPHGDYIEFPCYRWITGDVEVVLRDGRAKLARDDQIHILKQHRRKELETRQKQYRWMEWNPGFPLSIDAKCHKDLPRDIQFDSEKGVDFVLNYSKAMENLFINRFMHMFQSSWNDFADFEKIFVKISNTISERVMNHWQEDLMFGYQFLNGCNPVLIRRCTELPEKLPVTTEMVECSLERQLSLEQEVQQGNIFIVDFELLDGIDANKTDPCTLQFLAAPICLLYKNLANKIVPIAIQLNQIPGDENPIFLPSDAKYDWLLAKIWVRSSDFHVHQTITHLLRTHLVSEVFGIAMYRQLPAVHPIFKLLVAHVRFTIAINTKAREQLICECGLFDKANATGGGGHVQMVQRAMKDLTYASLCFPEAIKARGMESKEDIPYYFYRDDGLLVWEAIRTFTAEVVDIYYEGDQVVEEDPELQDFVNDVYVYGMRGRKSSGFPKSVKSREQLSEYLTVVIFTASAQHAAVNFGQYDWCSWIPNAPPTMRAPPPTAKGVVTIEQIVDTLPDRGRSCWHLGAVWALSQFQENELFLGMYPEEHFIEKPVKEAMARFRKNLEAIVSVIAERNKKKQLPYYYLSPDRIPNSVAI
Procedure, shortened: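 LTB4 in supernatant quantified by EIA after 15 min at 37° C. in HBSS, pH 7.4, where Ficoll-isolated human PBMLs (5×10^6) received ionophore A23187 (30 μM) and test compound (3 and 30 μM) or 0.1% DMSO vehicle.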

[5] = system: α-smooth muscle actin (α-SMA) mRNA; test: Anti-remodelling activity in human lung fibroblasts (HFL1): TGFβ-induced α-SMA mRNA (Assay 4); format: cell-based; conditions: HFL1 cells, TGFβ 10 ng/ml, 24 h
Procedure, shortened: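 Real-time RT-PCR of α-SMA mRNA, GAPDH as reference, measured after 24 h exposure of low-serum-primed HFL1 cells to 10 ng/ml TGFβ with test compounds (3 and 30 μM) in 10% FBS medium. Readout is inhibition of TGFβ-driven α-SMA mRNA overexpression.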

[6] = system: histamine-induced contractions in guinea pig ileum; test: Inhibition of histamine-induced contractions in guinea pig ileum (Assay 3); conditions: histamine 1.7 μM
Procedure, shortened: as §2

SMILES	Inhibition of IL-1α-induced PGE2 release (%) ([1]; 3 μM)	Inhibition of IL-1α-induced PGE2 release (%) ([1]; 30 μM)	Decrease in cell viability (%) (WI-38 cells; 3 μM)	Decrease in cell viability (%) (WI-38 cells; 30 μM)	Inhibition of 5-HT-induced contraction (%) ([2]; 3 μM)	Inhibition of 5-HT-induced contraction (%) ([2]; 30 μM)	Effect of test compounds on capsaicin (1 μM)-induced CGRP release (%) (TRPV1 receptor [4]; 3 μM with capsaicin 1 μM)	Effect of test compounds on capsaicin (1 μM)-induced CGRP release (%) (TRPV1 receptor [4]; 30 μM with capsaicin 1 μM)	CGRP release (% of capsaicin (1 μM) response) (TRPV1 receptor [4]; test compound alone 3 μM)	CGRP release (% of capsaicin (1 μM) response) (TRPV1 receptor [4]; test compound alone 30 μM)	Contraction of guinea pig ileum relative to 5-HT-induced contraction (guinea pig ileum; 3 μM)	Contraction of guinea pig ileum relative to histamine-induced contraction (guinea pig ileum; 3 μM)	Contraction of guinea pig ileum relative to 5-HT-induced contraction (guinea pig ileum; 30 μM)	Contraction of guinea pig ileum relative to histamine-induced contraction (guinea pig ileum; 30 μM)	Inhibition of 5-LO (%) (5-lipoxygenase; 3 μM)	Inhibition of 5-LO (%) (5-lipoxygenase; 30 μM)	Inhibition of α-SMA mRNA synthesis (%) ([5]; 3 μM)	Inhibition of α-SMA mRNA synthesis (%) ([5]; 30 μM)	Inhibition of histamine-induced contraction (%) ([6]; 3 μM)	Inhibition of histamine-induced contraction (%) ([6]; 30 μM)	other results
COc1cc(CCC(=O)CC(=O)C(C)C)ccc1O [Compound 1]	68%	101%	3%	−10%	0%	20%	−36%	−24%	26%	41%	0	0	0	0	26%	63%	12%	34%	0%	11%	Inhibition of EFS response relative to capsaicin (TRPV1 receptor [3]): 27%
COc1cc(CCC(=O)CC(=O)c2ccc(Cl)cc2Cl)ccc1O [Compound 24, 1-(2,4-Dihlorophenyl)-5-(4-hydroxy-3-methoxyphenyl)pentane-1,3-dione]	93%	100%	7%	26%	5%	98%	−13%	2%	92%	193%	0	0	0	0	45%	97%	8%	80%	12%	59%	
CCC(=O)CC(=O)CCc1ccc(O)c(OC)c1 [3-gingerdione, reference compound]	61%	99%	4%	5%	0%	5%	−37%	−43%	17%	18%	0	0	0	0	−5%	73%	13%	24%	5%	14%	
COc1cc(CCC(=O)CC(=O)c2ccc(Cl)c(Cl)c2)ccc1O [Compound 23, 1-(3,4-Dihlorophenyl)-5-(4-hydroxy-3-methoxyphenyl)pentane-1,3-dione]	84%	100%	6%	16%	11%	25%	−2%	47%	84%	242%	0	0	0	0	63%	98%	13%	79%	8%	37%	
